# Measurements from ChEMBL document CHEMBL4118096, “Branched Peptides: Acridine and Boronic Acid Derivatives as Antimicrobial Agents” (ACS Med Chem Lett, 2017).
# Where a SMILES comes first, the peptide text is derived from it. The star is where a group is joined. Benzoyl(4-B(OH)2) = O=C(c1ccc(B(O)O)cc1)*; Bz = O=C(c1ccccc1)*
# Key:
# Type in all cases: functional
# [1] = tested on: Escherichia coli; assay: Antimicrobial activity against Escherichia coli C ATCC 13706 measured on day 4 by broth microdilution method; conditions: C ATCC 13706, 96 h
# [2] = tested on: Aspergillus niger; assay: Antifungal activity against Aspergillus niger measured on day 4 by broth microdilution method; conditions: 96 h
# [3] = tested on: Candida albicans; assay: Antifungal activity against Candida albicans measured on day 4 by broth microdilution method; conditions: 96 h
# [4] = tested on: Staphylococcus aureus; assay: Antimicrobial activity against Staphylococcus aureus ATCC 6538 measured on day 4 by broth microdilution method; conditions: ATCC 6538, 96 h
# [5] = tested on: Mycolicibacterium smegmatis; assay: Antimicrobial activity against Mycobacterium smegmatis ATCC 607 measured on day 4 by broth microdilution method; conditions: ATCC 607, 96 h
# [6] = tested on: Saccharomyces cerevisiae; assay: Induction of membrane lysis activity in Saccharomyces cerevisiae assessed as maltase release at MIC after 60 mins relative to control
# [7] = tested on: Candida albicans; assay: Induction of membrane lysis in Candida albicans assessed as maltase release at MIC after 60 mins relative to control
# [8] = tested on: Candida albicans; assay: Antibiofilm activity against Candida albicans VT1406 after 24 hrs by XXT/PMS dye based assay; conditions: VT1406, 24 h
# [9] = tested on: Candida albicans; assay: Antifungal activity against Candida albicans VT1406 in cell suspension after 24 hrs by XXT/PMS dye based assay; conditions: VT1406, 24 h
Structure (SMILES),MIC [1] [µg/mL],MIC [2] [µg/mL],MIC [3] [µg/mL],MIC [4] [µg/mL],MIC [5] [µg/mL],Activity [6] [%],Activity [7] [%],MIC [8] [µg/mL],MIC [9] [µg/mL]
CC(C)C[C@H](NC(=O)[C@H](CC(C)C)NC(=O)[C@H](CCCCN)NC(=O)[C@H](CC(C)C)NC(=O)[C@@H](N)CC(C)C)C(=O)N[C@@H](CCCCN)C(=O)N[C@@H](CCCCN)C(=O)N[C@@H](CCCCNC(=O)c1ccc(B(O)O)cc1)C(=O)N[C@@H](CCCCN)C(=O)N[C@@H](Cc1ccc(O)cc1)C(=O)O (H-LLKLLKKK(Benzoyl(4-B(OH)2))KY-OH),16,250,8,62.5,125,–,–,–,–
CC(C)C[C@H](NC(=O)[C@H](CCCCNC(=O)c1ccccc1)NC(=O)[C@H](CCCCN)NC(=O)[C@H](CCCCN)NC(=O)[C@H](CCCCN)NC(=O)[C@H](CCCCN)NC(=O)[C@H](CCCCN)NC(=O)[C@@H](N)CCCCN)C(=O)N[C@@H](CCCCN)C(=O)N[C@@H](Cc1ccc(O)cc1)C(=O)O (H-KKKKKKK(Bz)LKY-OH),32,125,2,62.5,32,1,<1,–,–
CC(C)C[C@H](NC(=O)[C@H](CC(C)C)NC(=O)[C@H](CCCCN)NC(=O)[C@H](CCCCN)NC(=O)[C@H](CC(C)C)NC(=O)[C@H](CCCCN)NC(=O)[C@@H](N)CCCCN)C(=O)N[C@@H](CCCCN)C(=O)N[C@@H](CCCCNC(=O)c1ccc(B(O)O)cc1)C(=O)N[C@@H](Cc1ccc(O)cc1)C(=O)O (H-KKLKKLLKK(Benzoyl(4-B(OH)2))Y-OH),16,125,4,62.5,32,–,–,–,–
CC(C)C[C@H](NC(=O)[C@H](CCCCN)NC(=O)[C@H](CCCCN)NC(=O)[C@H](CCCCN)NC(=O)[C@H](CCCCNC(=O)c1ccccc1)NC(=O)[C@H](CCCCN)NC(=O)[C@H](CCCCN)NC(=O)[C@@H](N)CCCCNC(=O)c1ccccc1)C(=O)N[C@@H](CCCCNC(=O)c1ccc(B(O)O)cc1)C(=O)N[C@@H](Cc1ccc(O)cc1)C(=O)O (H-K(Bz)KKK(Bz)KKKLK(Benzoyl(4-B(OH)2))Y-OH),8,125,8,62.5,62.5,–,–,–,–
CC(C)C[C@H](NC(=O)[C@H](CCCCN)NC(=O)[C@H](CCCCNC(=O)c1ccc(B(O)O)cc1)NC(=O)[C@H](CCCCN)NC(=O)[C@H](CCCCN)NC(=O)[C@H](CCCCNC(=O)c1ccc(B(O)O)cc1)NC(=O)[C@H](CCCCN)NC(=O)[C@@H](N)CCCCN)C(=O)N[C@@H](CCCCNC(=O)c1ccc(B(O)O)cc1)C(=O)N[C@@H](Cc1ccc(O)cc1)C(=O)O (H-KKK(Benzoyl(4-B(OH)2))KKK(Benzoyl(4-B(OH)2))KLK(Benzoyl(4-B(OH)2))Y-OH),16,125,8,62.5,62.5,–,–,–,–
CC(C)C[C@H](NC(=O)[C@H](CCCCN)NC(=O)[C@H](CCCCN)NC(=O)[C@H](CC(C)C)NC(=O)[C@@H](N)CCCCN)C(=O)N[C@@H](CCCCN)C(=O)N[C@@H](CCCCN)C(=O)N[C@@H](CCCCN)C(=O)N[C@@H](CCCCNC(=O)c1ccc(B(O)O)cc1)C(=O)N[C@@H](Cc1ccc(O)cc1)C(=O)O (H-KLKKLKKKK(Benzoyl(4-B(OH)2))Y-OH),16,125,2,32,32,–,–,–,–
CC(C)C[C@H](NC(=O)[C@H](CCCCN)NC(=O)[C@H](CCCCN)NC(=O)[C@H](CCCCN)NC(=O)[C@H](CCCCN)NC(=O)[C@H](CCCCN)NC(=O)[C@@H](N)CCCCN)C(=O)N[C@@H](CCCCNC(=O)c1ccc(B(O)O)cc1)C(=O)N[C@@H](CCCCNC(=O)c1ccc(B(O)O)cc1)C(=O)N[C@@H](Cc1ccc(O)cc1)C(=O)O (H-KKKKKKLK(Benzoyl(4-B(OH)2))K(Benzoyl(4-B(OH)2))Y-OH),8,62.5,4,32,32,–,–,–,–
C[C@@H]1[C@H](O)[C@@H](C)/C=C/C=C/C=C/C=C/C=C/C=C/C=C/[C@H](O[C@@H]2O[C@H](C)[C@@H](O)[C@H](N)[C@@H]2O)C[C@@H]2O[C@](O)(C[C@@H](O)C[C@@H](O)[C@H](O)CC[C@@H](O)C[C@@H](O)CC(=O)O[C@H]1C)C[C@H](O)[C@H]2C(=O)O [AMPHOTERICIN B],–,–,–,–,–,–,–,0.25,0.25
CC(C)C[C@H](NC(=O)[C@H](CCCCN)NC(=O)[C@H](CC(C)C)NC(=O)[C@H](CCCCN)NC(=O)[C@H](CCCCN)NC(=O)[C@H](CC(C)C)NC(=O)[C@@H](N)CCCCN)C(=O)N[C@@H](CCCCN)C(=O)N[C@@H](CCCCNC(=O)c1ccc(B(O)O)cc1)C(=O)N[C@@H](Cc1ccc(O)cc1)C(=O)O (H-KLKKLKLKK(Benzoyl(4-B(OH)2))Y-OH),16,125,4,62.5,32,–,–,–,–
CC(C)C[C@H](NC(=O)[C@H](CCCCN)NC(=O)[C@H](CCCCN)NC(=O)[C@H](CCCCN)NC(=O)[C@H](CCCCN)NC(=O)[C@H](CCCCN)NC(=O)[C@H](CCCCN)NC(=O)[C@@H](N)CCCCN)C(=O)N[C@@H](CCCCNC(=O)c1ccccc1)C(=O)N[C@@H](Cc1ccc(O)cc1)C(=O)O (H-KKKKKKKLK(Bz)Y-OH),8,125,1,62.5,32,1.8,4,–,–
Clc1ccc(COC(Cn2ccnc2)c2ccc(Cl)cc2Cl)c(Cl)c1 (stereo not given) [MICONAZOLE],–,–,–,–,–,–,–,4,1

# Second part, led by results:
MIC [1] [µg/mL],MIC [2] [µg/mL],MIC [3] [µg/mL],MIC [4] [µg/mL],MIC [5] [µg/mL],Structure (SMILES),Activity [6] [%],Activity [7] [%],MIC [8] [µg/mL],MIC [9] [µg/mL]
16,250,1,62.5,32,NCCCC[C@H](NC(=O)[C@H](CCCCNC(=O)c1ccccc1)NC(=O)[C@H](CCCCNC(=O)c1ccccc1)NC(=O)[C@H](CCCCN)NC(=O)[C@H](CCCCN)NC(=O)[C@H](CCCCN)NC(=O)[C@H](CCCCN)NC(=O)[C@H](CCCCN)NC(=O)[C@@H](N)CCCCN)C(=O)N[C@@H](Cc1ccc(O)cc1)C(=O)O (H-KKKKKKK(Bz)K(Bz)KY-OH),–,–,–,–
16,62.5,4,32,32,CC(C)C[C@H](NC(=O)[C@H](CCCCNC(=O)c1ccc(B(O)O)cc1)NC(=O)[C@H](CC(C)C)NC(=O)[C@H](CCCCN)NC(=O)[C@H](CCCCN)NC(=O)[C@H](CCCCN)NC(=O)[C@H](CCCCN)NC(=O)[C@H](CCCCN)NC(=O)[C@@H](N)CCCCN)C(=O)N[C@@H](Cc1ccc(O)cc1)C(=O)O (H-KKKKKKLK(Benzoyl(4-B(OH)2))LY-OH),–,–,–,–
32,125,4,32,62.5,CC(C)C[C@H](NC(=O)[C@H](CCCCN)NC(=O)[C@H](CCCCN)NC(=O)[C@H](CCCCNC(=O)c1ccccc1)NC(=O)[C@H](CCCCN)NC(=O)[C@H](CCCCN)NC(=O)[C@H](CCCCNC(=O)c1ccccc1)NC(=O)[C@@H](N)CCCCN)C(=O)N[C@@H](CCCCNC(=O)c1ccc(B(O)O)cc1)C(=O)N[C@@H](Cc1ccc(O)cc1)C(=O)O (H-KK(Bz)KKK(Bz)KKLK(Benzoyl(4-B(OH)2))Y-OH),0.4,18,–,–
16,125,16,62.5,62.5,CC(C)C[C@H](NC(=O)[C@H](CC(C)C)NC(=O)[C@H](CCCCN)NC(=O)[C@H](CCCCNC(=O)c1ccc(B(O)O)cc1)NC(=O)[C@H](CCCCN)NC(=O)[C@H](CCCCN)NC(=O)[C@H](CCCCNC(=O)c1ccc(B(O)O)cc1)NC(=O)[C@@H](N)CCCCN)C(=O)N[C@@H](CCCCN)C(=O)N[C@@H](Cc1ccc(O)cc1)C(=O)O (H-KK(Benzoyl(4-B(OH)2))KKK(Benzoyl(4-B(OH)2))KLLKY-OH),–,–,–,–
16,125,8,62.5,62.5,CC(C)C[C@H](NC(=O)[C@H](CCCCN)NC(=O)[C@H](CCCCN)NC(=O)[C@H](CC(C)C)NC(=O)[C@H](CCCCN)NC(=O)[C@@H](N)CCCCN)C(=O)N[C@@H](CCCCN)C(=O)N[C@@H](CCCCNC(=O)c1ccc(B(O)O)cc1)C(=O)N[C@@H](CCCCNC(=O)c1ccc(B(O)O)cc1)C(=O)N[C@@H](Cc1ccc(O)cc1)C(=O)O (H-KKLKKLKK(Benzoyl(4-B(OH)2))K(Benzoyl(4-B(OH)2))Y-OH),–,–,–,–
